Our source for the melting point values is patent US9181199B2, “Uracil derivatives and use thereof” (RESprotect GmbH, priority 2008, dated 2015).

What is called melting point is the temperature, or range, at which the solid turns liquid. `O=c1c(C=CBr)cn(C(c2ccccc2)c2ccccc2)c(=O)n1Cc1ccccc1` [compound A, 1-Benzhydryl-3-benzyl-5-(2-bromovinyl)uracil] returned a melting point of 131 °C.

`O=c1[nH]c(=O)n(Cc2ccccc2)cc1C=CBr` [compound B, 1-Benzyl-5-(2-bromovinyl)uracil] yielded a melting point of 183 °C.

The molecule `C#Cc1cn(Cc2ccccc2)c(=O)[nH]c1=O` [compound R, 1-Benzyl-5-ethynyluracil] returned a melting point of 190 to 193 °C. To `C=CCn1cc(C#CBr)c(=O)[nH]c1=O` [compound I, 1-Allyl-5-bromoethynyluracil] belongs 164 to 168 °C; to `C[Si](C)(C)C#Cc1cn(Cc2ccccc2)c(=O)[nH]c1=O`, 213 to 215 °C. Then `N#CC=Cc1cn(C(c2ccccc2)c2ccccc2)c(=O)[nH]c1=O` [compound G, 1-Benzhydryl-5-(2-cyanovinyl)uracil], with 261 °C. `CC(c1ccccc1)n1cc(C=C(Br)Br)c(=O)[nH]c1=O` (stereo not shown) [compound M, 1-(1-Phenylethyl)-5-(2,2-dibromovinyl)uracil] had a melting point of 179 to 183 °C. Then `C=CCn1cc(C=CBr)c(=O)[nH]c1=O` [compound C, 1-Allyl-5-(2-bromovinyl)uracil], with 137 °C; and `C=CCn1cc(C=C(Br)Br)c(=O)[nH]c1=O` [compound H, 1-Allyl-5-(2,2-dibromovinyl)uracil], with 154 to 156 °C; and `CC(c1ccccc1)n1cc(C#CBr)c(=O)[nH]c1=O` (stereo not shown) [compound N, 1-(1-Phenylethyl)-5-bromoethynyluracil], with 163 to 167 °C. Then `O=c1[nH]c(=O)n(Cc2ccccc2)cc1C=C(Br)Br` [compound L, 1-Benzyl-5-(2,2-dibromovinyl)uracil], with 205 to 206 °C; and `O=c1[nH]c(=O)n(Cc2ccccc2)cc1C#CBr` [compound D, 1-Benzyl-5-bromoethynyluracil], with 162 to 165 °C; and `O=c1[nH]c(=O)n(C(c2ccccc2)c2ccccc2)cc1-c1c[nH]nn1` [compound F, 1-Benzhydryl-5-(1H-1,2,3-triazol-4-yl)uracil], with 165 °C.
